Values quoted from earlier work in patent publication US7989624B2, “Aryl spirolactam CGRP receptor antagonists” (Merck Sharp & Dohme Corp., priority 2004, dated 2011).
Where no end group is shown, it is not given here.

Tests used:
[1] = tested on: rats; settings: electrical stimulation of the dura mater, prior administration
[2] = tested on: rat; settings: trigeminal ganglion stimulation
[3] = tested on: migraine; settings: clinical studies, intravenously administered
[4] = tested on: marmoset; settings: electrical stimulation of the trigeminal ganglion

Compound | increase of the diameter of the middle meningeal artery [1] | increased facial blood flow [2] | acute treatment for migraine [3] | increase in facial blood flow [4]
CGRP(8-37): a fragment of CGRP that lacks seven N-terminal amino acid residues; a peptide CGRP antagonist (VTHRLAGLLSRSGGVVKNNFVPTNVGSKAF; ends and bridges not checked; UniProt P06881 90-119, looked up, fragment) | blocked | inhibited | – | –
NCCCC[C@H](NC(=O)[C@@H](Cc1cc(Br)c(O)c(Br)c1)NC(=O)N1CCC(N2Cc3ccccc3NC2=O)CC1)C(=O)N1CCN(c2ccncc2)CC1 [BIBN4096BS] | – | – | safe and effective | could be blocked
